Measurements from patent publication US8835378B2, “Multi-domain amphipathic helical peptides and methods of their use” (The United States of America as represented by the …, priority 2004, dated 2014).
Where a SMILES comes first, the peptide text is derived from it.

Tests used:
red blood cells = experiment: Red blood cell hemolysis assay; type: cell-based; conditions: 1 hour at 37° C.
Method: Red blood cells were incubated with the indicated concentration of the peptides for 1 hour at 37° C. Results are expressed as the mean of triplicates±1 SD.
Approximately 25% of the red blood cells were lysed after 1 hour at the maximum dose tested (FIG. 9). Overall, the modified peptides containing the Ala substitutions were less cytotoxic, and the degree of cytotoxicity closely correlated with the number of Ala substitutions.

[1] = tested on: HeLa cells stably transfected with human ABCA1 cDNA (ABCA1 cells); experiment: Cholesterol and phospholipid efflux from ABCA1 transfected cells; type: cell-based; conditions: for cholesterol efflux to other detergents compared with taurodeoxycholate: sublytic concentrations, ABCA1 cells and control cells; for cholesterol and phospholipid efflux from ABCA1 cells (in words): 18 hours
Method: (§1) Percentage efflux was calculated after subtracting the radioactive counts in the blank media (αMEM plus 1 mg/ml of BSA), and expressed as the percent of total radioactive counts removed from the cells during the efflux period.
(§2) Cell fixation was performed by a 10 minute treatment with 3% paraformaldehyde in phosphate buffered saline (PBS), followed by three washes with blank media. Lactate dehydrogenase (LDH) release from cells into the media was measured enzymatically (Roche Diagnostics, Indianapolis, Ind.) and expressed, after subtraction of LDH released into blank media, as the percentage of total cell LDH. Total cell LDH was determined after cell solubilization with 1% Triton X-100.

[2] = tested on: HeLa cells transfected with only a hygromycin-resistant control plasmid (control cells); experiment: Cholesterol and phospholipid efflux from control cells; type: cell-based, human; conditions: for cholesterol and phospholipid efflux from control cells (in words): 18 hours
Method: as §1, §2

[3] = tested on: ABCA1 cells and control cells; experiment: Cell morphology by light microscopy during efflux experiments; type: cell-based, human; conditions: light microscopy, during efflux experiments

Compound: CC(C)C[C@H](NC(=O)[C@H](Cc1c[nH]c2ccccc12)NC(=O)[C@H](CC(=O)O)NC(=O)[C@@H]1CCCN1C(=O)[C@H](Cc1ccccc1)NC(=O)[C@H](C)NC(=O)[C@H](CCC(=O)O)NC(=O)[C@H](CCCCN)NC(=O)[C@H](CC(C)C)NC(=O)[C@H](CCCCN)NC(=O)[C@H](CCC(=O)O)NC(=O)[C@H](C)NC(=O)[C@@H](NC(=O)[C@H](CCCCN)NC(=O)[C@H](CC(=O)O)NC(=O)[C@H](Cc1ccc(O)cc1)NC(=O)[C@H](Cc1ccccc1)NC(=O)[C@H](C)NC(=O)[C@H](CCCCN)NC(=O)[C@H](CC(C)C)NC(=O)[C@H](Cc1c[nH]c2ccccc12)NC(=O)[C@@H](N)CC(=O)O)C(C)C)C(=O)N[C@@H](CCCCN)C(=O)N[C@@H](C)C(=O)N[C@@H](Cc1ccccc1)C(=O)N[C@@H](Cc1ccc(O)cc1)C(=O)N[C@@H](CC(=O)O)C(=O)N[C@@H](CCCCN)C(=O)N[C@H](C(=O)N[C@@H](C)C(=O)N[C@@H](CCC(=O)O)C(=O)N[C@@H](CCCCN)C(=O)N[C@@H](C)C(=O)N[C@@H](CCCCN)C(=O)N[C@@H](CCC(=O)O)C(=O)N[C@@H](C)C(=O)N[C@@H](Cc1ccccc1)C(=O)O)C(C)C [1A] (H-DWLKAFYDKVAEKLKEAFPDWLKAFYDKVAEKAKEAF-OH; N-terminus and C-terminus assumed)
- hemolysis / cytotoxicity to red blood cells (in words) (red blood cells): moderate degree of hemolysis

Compound: CC(C)C[C@H](NC(=O)[C@H](Cc1c[nH]c2ccccc12)NC(=O)[C@H](CC(=O)O)NC(=O)[C@@H]1CCCN1C(=O)[C@H](Cc1ccccc1)NC(=O)[C@H](C)NC(=O)[C@H](CCC(=O)O)NC(=O)[C@H](CCCCN)NC(=O)[C@H](CC(C)C)NC(=O)[C@H](CCCCN)NC(=O)[C@H](CCC(=O)O)NC(=O)[C@H](C)NC(=O)[C@@H](NC(=O)[C@H](CCCCN)NC(=O)[C@H](CC(=O)O)NC(=O)[C@H](Cc1ccc(O)cc1)NC(=O)[C@H](Cc1ccccc1)NC(=O)[C@H](C)NC(=O)[C@H](CCCCN)NC(=O)[C@H](CC(C)C)NC(=O)[C@H](Cc1c[nH]c2ccccc12)NC(=O)[C@@H](N)CC(=O)O)C(C)C)C(=O)N[C@@H](CCCCN)C(=O)N[C@@H](C)C(=O)N[C@@H](Cc1ccccc1)C(=O)N[C@@H](Cc1ccc(O)cc1)C(=O)N[C@@H](CC(=O)O)C(=O)N[C@@H](CCCCN)C(=O)N[C@H](C(=O)N[C@@H](C)C(=O)N[C@@H](CCC(=O)O)C(=O)N[C@@H](CCCCN)C(=O)N[C@@H](C)C(=O)N[C@@H](CCCCN)C(=O)N[C@@H](CCC(=O)O)C(=O)N[C@@H](C)C(=O)N[C@@H](C)C(=O)O)C(C)C [2A] (H-DWLKAFYDKVAEKLKEAFPDWLKAFYDKVAEKAKEAA-OH; N-terminus and C-terminus assumed)
- hemolysis / cytotoxicity to red blood cells (in words) (red blood cells): moderate degree of hemolysis

Compound: CC(C)C[C@H](NC(=O)[C@H](Cc1c[nH]c2ccccc12)NC(=O)[C@H](CC(=O)O)NC(=O)[C@@H]1CCCN1C(=O)[C@H](Cc1ccccc1)NC(=O)[C@H](C)NC(=O)[C@H](CCC(=O)O)NC(=O)[C@H](CCCCN)NC(=O)[C@H](CC(C)C)NC(=O)[C@H](CCCCN)NC(=O)[C@H](CCC(=O)O)NC(=O)[C@H](C)NC(=O)[C@@H](NC(=O)[C@H](CCCCN)NC(=O)[C@H](CC(=O)O)NC(=O)[C@H](Cc1ccc(O)cc1)NC(=O)[C@H](Cc1ccccc1)NC(=O)[C@H](C)NC(=O)[C@H](CCCCN)NC(=O)[C@H](CC(C)C)NC(=O)[C@H](Cc1c[nH]c2ccccc12)NC(=O)[C@@H](N)CC(=O)O)C(C)C)C(=O)N[C@@H](CCCCN)C(=O)N[C@@H](C)C(=O)N[C@@H](C)C(=O)N[C@@H](Cc1ccc(O)cc1)C(=O)N[C@@H](CC(=O)O)C(=O)N[C@@H](CCCCN)C(=O)N[C@H](C(=O)N[C@@H](C)C(=O)N[C@@H](CCC(=O)O)C(=O)N[C@@H](CCCCN)C(=O)N[C@@H](C)C(=O)N[C@@H](CCCCN)C(=O)N[C@@H](CCC(=O)O)C(=O)N[C@@H](C)C(=O)N[C@@H](C)C(=O)O)C(C)C [3A] (H-DWLKAFYDKVAEKLKEAFPDWLKAAYDKVAEKAKEAA-OH; N-terminus and C-terminus assumed)
- hemolysis / cytotoxicity to red blood cells (in words) (red blood cells): moderate degree of hemolysis

Compound: CC(C)C[C@H](NC(=O)[C@H](Cc1c[nH]c2ccccc12)NC(=O)[C@H](CC(=O)O)NC(=O)[C@@H]1CCCN1C(=O)[C@H](Cc1ccccc1)NC(=O)[C@H](C)NC(=O)[C@H](CCC(=O)O)NC(=O)[C@H](CCCCN)NC(=O)[C@H](CC(C)C)NC(=O)[C@H](CCCCN)NC(=O)[C@H](CCC(=O)O)NC(=O)[C@H](C)NC(=O)[C@@H](NC(=O)[C@H](CCCCN)NC(=O)[C@H](CC(=O)O)NC(=O)[C@H](Cc1ccc(O)cc1)NC(=O)[C@H](Cc1ccccc1)NC(=O)[C@H](C)NC(=O)[C@H](CCCCN)NC(=O)[C@H](CC(C)C)NC(=O)[C@H](Cc1c[nH]c2ccccc12)NC(=O)[C@@H](N)CC(=O)O)C(C)C)C(=O)N[C@@H](CCCCN)C(=O)N[C@@H](C)C(=O)N[C@@H](C)C(=O)N[C@@H](Cc1ccc(O)cc1)C(=O)N[C@@H](CC(=O)O)C(=O)N[C@@H](CCCCN)C(=O)N[C@@H](C)C(=O)N[C@@H](C)C(=O)N[C@@H](CCC(=O)O)C(=O)N[C@@H](CCCCN)C(=O)N[C@@H](C)C(=O)N[C@@H](CCCCN)C(=O)N[C@@H](CCC(=O)O)C(=O)N[C@@H](C)C(=O)N[C@@H](C)C(=O)O [4A] (H-DWLKAFYDKVAEKLKEAFPDWLKAAYDKAAEKAKEAA-OH; N-terminus and C-terminus assumed)
- hemolysis / cytotoxicity to red blood cells (in words) (red blood cells): no appreciable hemolysis

Compound: CC(C)C[C@H](NC(=O)[C@H](CCCCN)NC(=O)[C@H](CCC(=O)O)NC(=O)[C@H](C)NC(=O)[C@@H](NC(=O)[C@H](CCCCN)NC(=O)[C@H](CC(=O)O)NC(=O)[C@H](Cc1ccc(O)cc1)NC(=O)[C@H](Cc1ccccc1)NC(=O)[C@H](C)NC(=O)[C@H](CCCCN)NC(=O)[C@H](CC(C)C)NC(=O)[C@H](Cc1c[nH]c2ccccc12)NC(=O)[C@@H](N)CC(=O)O)C(C)C)C(=O)N[C@@H](CCCCN)C(=O)N[C@@H](CCC(=O)O)C(=O)N[C@@H](C)C(=O)N[C@@H](Cc1ccccc1)C(=O)N1CCC[C@H]1C(=O)N[C@@H](CC(=O)O)C(=O)N[C@@H](Cc1c[nH]c2ccccc12)C(=O)N[C@@H](C)C(=O)N[C@@H](CCCCN)C(=O)N[C@@H](C)C(=O)N[C@@H](C)C(=O)N[C@@H](Cc1ccc(O)cc1)C(=O)N[C@@H](CC(=O)O)C(=O)N[C@@H](CCCCN)C(=O)N[C@@H](C)C(=O)N[C@@H](C)C(=O)N[C@@H](CCC(=O)O)C(=O)N[C@@H](CCCCN)C(=O)N[C@@H](C)C(=O)N[C@@H](CCCCN)C(=O)N[C@@H](CCC(=O)O)C(=O)N[C@@H](C)C(=O)N[C@@H](C)C(=O)O [5A] (H-DWLKAFYDKVAEKLKEAFPDWAKAAYDKAAEKAKEAA-OH; N-terminus and C-terminus assumed)
- hemolysis / cytotoxicity to red blood cells (in words) (red blood cells): no appreciable hemolysis

Compound: C[C@H](CCC(=O)NCCC[N+](C)(C)CCCS(=O)(=O)[O-])[C@H]1CC[C@H]2[C@@H]3[C@H](O)C[C@@H]4C[C@H](O)CC[C@]4(C)[C@H]3C[C@H](O)[C@]12C [CHAPS]
- cholesterol efflux to other detergents compared with taurodeoxycholate [1]: Nearly identical results

Compound: C[C@H](CCC(=O)NCCS(=O)(=O)O)[C@H]1CC[C@H]2[C@@H]3CC[C@@H]4C[C@H](O)CC[C@]4(C)[C@H]3C[C@H](O)[C@]12C [taurodeoxycholate, reference compound]
- cholesterol efflux from control cells to detergent ([2]; 0.02%, 1 hour): Approximately the same amount of cholesterol efflux
- cholesterol efflux from ABCA1 cells to detergent after fixation ([1]; 0.02%, 1 hour, after fixation with 3% paraformaldehyde): slightly increased after fixation
- cholesterol efflux from ABCA1 cells to detergent ([1]; 0.02%, 1 hour, before fixation): small amount of cholesterol efflux
- effect on cell morphology [3]: did not alter the morphology of the cells

Compound: DWLKAFYDKVAEKLKEAFPDWLKAFYDKVA EKLKEAF [37pA, reference compound]
- cholesterol and phospholipid efflux from control cells (in words) [2]: able to mediate cholesterol efflux from a control HeLa cell line
- cholesterol and phospholipid efflux from ABCA1 cells (in words) [1]: promoted ABCA1-mediated cholesterol efflux

Compound: NP-40
- cholesterol efflux to other detergents compared with taurodeoxycholate [1]: Nearly identical results

Compound: RMRITERDDFRGQMSEITDDCPSLQDRFHLTEVHSLRVLEGS (Gamma crystalline peptide.) [contains two non-amphipathic alpha helices of approximately the same length as the helices on 37pA, reference compound]
- cholesterol and phospholipid efflux from control cells (in words) [2]: completely ineffective
- cholesterol and phospholipid efflux from ABCA1 cells (in words) [1]: completely ineffective
